44 compounds from ChEMBL document CHEMBL1157740, “The discovery of novel tartrate-based TNF-alpha converting enzyme (TACE) inhibitors” (Bioorg Med Chem Lett, 2010) can be followed below.

As a reminder, the Ki is a dissociation constant, usually derived from enzyme kinetics or from competition with a known ligand.

Assay [1] has as its target Disintegrin and metalloproteinase domain-containing protein 17 (Homo sapiens, UniProt P78536). The assay is described as follows: Inhibition of TACE.
Assay [2] has as its target T1, Disintegrin and metalloproteinase domain-containing protein 10 (Homo sapiens, UniProt O14672).
T1 sequence (O14672 whole entry): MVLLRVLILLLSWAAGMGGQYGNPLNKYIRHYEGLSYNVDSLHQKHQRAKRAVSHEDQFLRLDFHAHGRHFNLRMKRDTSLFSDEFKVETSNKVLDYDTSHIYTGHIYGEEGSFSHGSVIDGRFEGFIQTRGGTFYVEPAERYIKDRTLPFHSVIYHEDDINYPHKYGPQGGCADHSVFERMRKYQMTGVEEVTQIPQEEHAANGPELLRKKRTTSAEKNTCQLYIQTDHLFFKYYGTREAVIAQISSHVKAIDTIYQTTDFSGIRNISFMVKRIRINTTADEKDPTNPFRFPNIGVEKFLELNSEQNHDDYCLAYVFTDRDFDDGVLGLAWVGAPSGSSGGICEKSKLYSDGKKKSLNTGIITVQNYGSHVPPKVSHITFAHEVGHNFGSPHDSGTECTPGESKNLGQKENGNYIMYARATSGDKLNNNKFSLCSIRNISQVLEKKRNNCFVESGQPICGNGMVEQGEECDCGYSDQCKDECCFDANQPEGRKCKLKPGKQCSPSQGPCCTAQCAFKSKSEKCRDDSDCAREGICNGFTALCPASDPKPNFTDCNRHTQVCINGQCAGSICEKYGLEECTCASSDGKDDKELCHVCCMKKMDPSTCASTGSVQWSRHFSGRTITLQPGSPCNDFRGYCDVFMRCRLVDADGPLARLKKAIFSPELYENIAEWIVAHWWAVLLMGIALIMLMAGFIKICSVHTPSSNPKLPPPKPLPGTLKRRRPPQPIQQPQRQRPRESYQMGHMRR
The assay is described as follows: Inhibition of ADAM10.

Assay [3] addresses Macrophage metalloelastase (Homo sapiens, UniProt P39900). The assay is described as follows: Inhibition of MMP12.
The next assay has as its target T2, Matrilysin (Homo sapiens, UniProt P09237).
T2 sequence (P09237 whole entry): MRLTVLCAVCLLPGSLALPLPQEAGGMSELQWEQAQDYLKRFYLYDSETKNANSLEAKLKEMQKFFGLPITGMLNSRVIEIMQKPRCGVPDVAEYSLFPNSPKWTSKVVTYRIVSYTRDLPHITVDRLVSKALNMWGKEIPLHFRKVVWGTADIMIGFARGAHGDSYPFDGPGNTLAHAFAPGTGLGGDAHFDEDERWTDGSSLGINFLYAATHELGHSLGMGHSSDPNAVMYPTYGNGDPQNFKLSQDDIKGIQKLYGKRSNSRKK
The assay is described as follows: Inhibition of MMP7.

Another assay has as its target Stromelysin-1 (Homo sapiens, UniProt P08254). The assay is described as follows: Inhibition of MMP3.
The target of the next assay is Collagenase 3 (Homo sapiens, UniProt P45452). The assay is described as follows: Inhibition of MMP13.
A further assay deals with T3, Interstitial collagenase (Homo sapiens, UniProt P03956).
T3 sequence (P03956 whole entry): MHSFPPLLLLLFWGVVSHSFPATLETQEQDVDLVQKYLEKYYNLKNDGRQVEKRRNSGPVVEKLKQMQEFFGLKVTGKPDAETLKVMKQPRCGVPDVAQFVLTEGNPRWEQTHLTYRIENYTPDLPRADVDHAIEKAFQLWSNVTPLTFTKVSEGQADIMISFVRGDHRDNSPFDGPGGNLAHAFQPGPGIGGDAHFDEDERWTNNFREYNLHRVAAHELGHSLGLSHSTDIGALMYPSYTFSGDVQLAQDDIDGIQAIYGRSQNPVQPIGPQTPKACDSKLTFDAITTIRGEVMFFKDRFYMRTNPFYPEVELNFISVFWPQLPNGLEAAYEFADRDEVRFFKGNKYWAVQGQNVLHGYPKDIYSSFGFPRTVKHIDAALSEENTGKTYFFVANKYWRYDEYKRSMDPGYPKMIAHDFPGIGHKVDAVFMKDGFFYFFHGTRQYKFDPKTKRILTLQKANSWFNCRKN
The assay is described as follows: Inhibition of MMP1.

Assay [4] deals with Matrix metalloproteinase-14 (Homo sapiens, UniProt P50281). The assay is described as follows: Inhibition of MMP14.
Assay [5] has as its target 72 kDa type IV collagenase (Homo sapiens, UniProt P08253). The assay is described as follows: Inhibition of MMP2.

Some results are limits rather than exact numbers.

Chain of Disintegrin and metalloproteinase domain-containing protein 17 (P78536 whole entry, the tested form may be a part): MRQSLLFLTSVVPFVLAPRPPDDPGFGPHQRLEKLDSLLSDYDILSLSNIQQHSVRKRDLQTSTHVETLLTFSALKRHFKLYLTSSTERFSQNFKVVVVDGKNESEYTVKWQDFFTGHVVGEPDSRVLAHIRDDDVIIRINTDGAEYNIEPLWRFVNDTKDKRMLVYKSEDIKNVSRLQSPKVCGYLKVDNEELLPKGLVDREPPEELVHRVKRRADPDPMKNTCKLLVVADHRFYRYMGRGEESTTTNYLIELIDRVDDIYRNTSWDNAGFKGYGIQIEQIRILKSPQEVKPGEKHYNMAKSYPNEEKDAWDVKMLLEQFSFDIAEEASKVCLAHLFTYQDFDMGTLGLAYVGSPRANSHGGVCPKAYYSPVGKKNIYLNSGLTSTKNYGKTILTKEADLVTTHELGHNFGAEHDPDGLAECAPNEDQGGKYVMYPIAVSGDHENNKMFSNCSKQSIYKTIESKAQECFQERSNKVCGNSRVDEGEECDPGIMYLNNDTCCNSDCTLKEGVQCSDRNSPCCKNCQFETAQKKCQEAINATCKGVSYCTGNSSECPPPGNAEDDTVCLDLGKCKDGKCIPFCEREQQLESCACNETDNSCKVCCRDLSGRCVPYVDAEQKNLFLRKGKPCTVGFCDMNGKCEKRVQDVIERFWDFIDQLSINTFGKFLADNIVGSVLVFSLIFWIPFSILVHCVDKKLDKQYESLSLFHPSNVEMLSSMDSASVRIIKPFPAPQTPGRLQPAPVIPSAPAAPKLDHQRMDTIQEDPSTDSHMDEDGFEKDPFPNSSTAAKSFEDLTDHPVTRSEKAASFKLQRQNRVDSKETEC
Chain of Stromelysin-1 (P08254 whole entry): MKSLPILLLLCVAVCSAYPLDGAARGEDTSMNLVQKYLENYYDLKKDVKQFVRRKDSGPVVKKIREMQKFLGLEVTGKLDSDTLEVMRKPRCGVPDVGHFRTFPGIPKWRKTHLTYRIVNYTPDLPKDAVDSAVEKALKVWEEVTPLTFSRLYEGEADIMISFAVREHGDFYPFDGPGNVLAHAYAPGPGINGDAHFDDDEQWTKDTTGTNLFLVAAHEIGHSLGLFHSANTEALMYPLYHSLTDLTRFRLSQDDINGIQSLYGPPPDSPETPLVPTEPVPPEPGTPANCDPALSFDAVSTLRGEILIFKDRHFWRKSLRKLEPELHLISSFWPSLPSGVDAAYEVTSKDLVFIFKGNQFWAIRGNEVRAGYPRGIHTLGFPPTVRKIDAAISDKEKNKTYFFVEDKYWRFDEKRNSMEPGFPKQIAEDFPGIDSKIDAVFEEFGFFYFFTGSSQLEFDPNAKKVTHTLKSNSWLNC
Chain of 72 kDa type IV collagenase (P08253 whole entry): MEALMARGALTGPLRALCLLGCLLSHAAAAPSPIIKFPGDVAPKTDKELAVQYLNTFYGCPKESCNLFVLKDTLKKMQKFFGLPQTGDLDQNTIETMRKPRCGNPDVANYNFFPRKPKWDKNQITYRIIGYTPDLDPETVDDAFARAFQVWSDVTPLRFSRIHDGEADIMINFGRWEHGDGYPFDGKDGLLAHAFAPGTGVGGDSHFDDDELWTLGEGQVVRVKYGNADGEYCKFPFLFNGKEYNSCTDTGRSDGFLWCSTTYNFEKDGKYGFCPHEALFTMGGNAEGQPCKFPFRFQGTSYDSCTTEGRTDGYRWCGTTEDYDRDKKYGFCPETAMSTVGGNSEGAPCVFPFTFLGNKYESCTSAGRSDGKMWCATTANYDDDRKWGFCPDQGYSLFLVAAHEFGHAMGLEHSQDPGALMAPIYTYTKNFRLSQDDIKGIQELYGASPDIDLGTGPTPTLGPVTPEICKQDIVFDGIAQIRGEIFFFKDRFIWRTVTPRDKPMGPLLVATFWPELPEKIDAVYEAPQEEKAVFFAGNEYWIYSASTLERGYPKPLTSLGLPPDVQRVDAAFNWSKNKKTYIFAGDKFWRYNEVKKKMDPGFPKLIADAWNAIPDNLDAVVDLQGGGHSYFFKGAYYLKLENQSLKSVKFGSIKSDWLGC
Chain of Macrophage metalloelastase (P39900 whole entry): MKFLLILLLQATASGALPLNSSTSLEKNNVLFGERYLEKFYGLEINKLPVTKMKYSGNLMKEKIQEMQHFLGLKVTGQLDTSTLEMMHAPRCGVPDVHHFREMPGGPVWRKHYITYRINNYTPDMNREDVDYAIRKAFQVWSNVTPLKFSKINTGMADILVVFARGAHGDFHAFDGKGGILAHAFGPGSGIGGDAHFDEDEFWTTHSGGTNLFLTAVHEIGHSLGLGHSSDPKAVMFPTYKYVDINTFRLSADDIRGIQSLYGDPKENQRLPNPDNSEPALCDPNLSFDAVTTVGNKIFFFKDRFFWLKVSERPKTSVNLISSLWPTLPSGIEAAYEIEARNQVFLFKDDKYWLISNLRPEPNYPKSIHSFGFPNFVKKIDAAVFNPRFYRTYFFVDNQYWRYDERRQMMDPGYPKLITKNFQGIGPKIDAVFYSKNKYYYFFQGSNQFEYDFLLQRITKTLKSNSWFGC

In the case of `Cn1ccnc1[C@H](O)[C@@H](O)C(=O)NCCc1cccs1`, the Ki in [1] (read-out: Ki) was found to be 10600 nM.

Take `O=C(NCCc1cccs1)[C@H](O)[C@@H](O)c1nccs1`: in assay [1] (read-out: Ki), the Ki was found to be 5530 nM.

`C[C@H](c1ccccc1)N(C)C(=O)[C@H](O)[C@@H](O)C(=O)NCCc1cccs1`: the inhibition constant (Ki) in [1] (read-out: Ki) turned out to be 238 nM.

Turning to `O=C(NCc1cc(Cc2ccccc2Cl)cs1)[C@H](O)[C@@H](O)C(=S)N1CCCC1c1cccc(Cl)c1` (some centres undefined), in assay [1] (read-out: Ki), the Ki came to 1520 nM.

Consider `O=C(NCCc1cccs1)[C@H](O)[C@@H](O)C(=O)N1CCCC1c1ccccc1` (some centres undefined), for which the inhibition constant Ki in assay [1] (read-out: Ki) is 96 nM.

On to `O=C(NCCc1nc(Cc2ccccc2)co1)[C@H](O)[C@@H](O)C(=O)N1CCCC1c1ccccc1` (some centres undefined), for which, in assay [1] (read-out: Ki), the Ki stood at 461 nM.

Turning to `O=C(NCc1cc(CC2C=CC=CC2Cl)cs1)[C@H](O)[C@@H](O)C(=O)N1CCC[C@@H]1c1cccc(Cl)c1` (some centres undefined), the inhibition constant (Ki) in assay [1] (read-out: Ki) stood at 13 nM.

With `O=C(NCc1nc(Cc2ccccc2)co1)[C@H](O)[C@@H](O)C(=O)N1CCCC1c1ccccc1` (some centres undefined), in assay [1] (read-out: Ki), the Ki amounted to 22 nM.

Take `O=C(C[C@@H](O)C(=O)N1CCCC1c1cccc(Cl)c1)NCCc1cccs1` (some centres undefined): the Ki result in assay [1] was “Not Active”.

As to `O=C(NCCc1cccs1)[C@H](O)[C@@H](O)C(=O)N1CCCC1c1ccccc1Cl` (some centres undefined), in assay [1] (read-out: Ki), the Ki stood at 323 nM.

As for `O=C(NCCc1cccs1)[C@H](O)[C@@H](O)C(=O)N1CCc2ccccc2C1`, in assay [1] (read-out: Ki), the inhibitory constant (Ki) is 91 nM.

Turning to `CN(C)C(=O)[C@H](O)[C@@H](O)C(=O)NCCc1cccs1`, in [1] (read-out: Ki), the inhibitory constant (Ki) came out at 1300 nM.

As to `O=C(NCCc1cccs1)[C@H](O)[C@@H](O)C(=O)N1CCC(c2ccccc2)C1` (some centres undefined), in assay [1] (read-out: Ki), the Ki came out at 456 nM.

As for `CN(Cc1cccnc1)C(=O)[C@H](O)[C@@H](O)C(=O)NCCc1cccs1`, the Ki in assay [1] (read-out: Ki) was determined as 943 nM.

`O=C(NCCc1cccs1)[C@H](O)[C@@H](O)C(=O)N1CCCC1c1ccccn1` (some centres undefined): the inhibitory constant (Ki) in assay [1] (read-out: Ki) amounted to 188 nM.

For the compound `COc1cccc(C2CCCN2C(=O)[C@H](O)[C@@H](O)C(=O)N(C)CCc2cccs2)c1` (some centres undefined), in assay [1] (read-out: Ki), the Ki came out at 33 nM.

Turning to `O=C(NCc1ccccc1)[C@H](O)[C@@H](O)C(=O)N1CCCC1c1cccc(Cl)c1` (some centres undefined), the Ki in [1] (read-out: Ki) turned out to be 1440 nM.

Regarding `O=C(NCCc1cccs1)[C@H](O)[C@@H](O)C(=O)N1CCN(c2ccccc2Cl)CC1`, the Ki in assay [2] is 400 nM; in [1] (read-out: Ki), 400 nM; in assay [3], 9000 nM; on Matrilysin, over 60000 nM; on Stromelysin-1, over 50000 nM; on Collagenase 3, 7000 nM. Besides, the Ki on Interstitial collagenase is over 90000 nM; in assay [4] it was over 40000 nM; in assay [5] it was over 30000 nM.

Take `O=C(NCCc1cccs1)[C@H](O)[C@@H](O)C(=O)N1Cc2ccccc2C1`: the Ki in assay [1] (read-out: Ki) was 66 nM.

In the case of `O=C(NCCc1cccs1)[C@H](O)[C@@H](O)C(=O)N1CCCC1c1ccc(Cl)cc1` (some centres undefined), the inhibitory constant (Ki) in assay [1] (read-out: Ki) was 755 nM.

As to `O=C(NCc1ccc(Cc2ccccc2)cc1)[C@H](O)[C@@H](O)C(=O)N1CCCC1c1cccc(Cl)c1` (some centres undefined), the Ki in assay [1] (read-out: Ki) was found to be 70 nM.

Consider `O=C(NCc1cc2ccccc2o1)[C@H](O)[C@@H](O)C(=O)N1CCCC1c1ccccc1` (some centres undefined), for which the inhibition constant Ki was 734 nM in assay [2]; 160 nM in assay [1] (read-out: Ki); over 50000 nM on Matrilysin; 7700 nM at Stromelysin-1; 510 nM at Collagenase 3; 18700 nM on Interstitial collagenase. Also, the Ki in [4] was found to be 140 nM; in assay [5] it was 300 nM.

On to `O=C(NCCc1cccs1)[C@H](O)[C@@H](O)C(=O)N1CCC(Cc2ccccc2)CC1`, for which the Ki in assay [1] (read-out: Ki) was determined as 1100 nM.

For the compound `O=C(NCCc1cccs1)[C@H](O)[C@@H](O)C(=O)N1CCN(c2ccccn2)CC1`, the inhibition constant (Ki) in assay [1] (read-out: Ki) came out at 2500 nM.

As for `C[C@@H](c1ccccc1)N(C)C(=O)[C@H](O)[C@@H](O)C(=O)NCCc1cccs1`, the inhibition constant (Ki) in assay [1] (read-out: Ki) was 487 nM.

With `CN(C)c1cccc(C2CCCN2C(=O)[C@H](O)[C@@H](O)C(=O)NCCc2cccs2)c1` (some centres undefined), the Ki in assay [1] (read-out: Ki) worked out at 41 nM.

On to `O=C(NCCc1cccs1)[C@H](O)[C@@H](O)C(=O)N1CCCC1c1cccc(Cl)c1` (some centres undefined), for which the inhibition constant (Ki) in [2] is 29 nM; in assay [1] (read-out: Ki), 11 nM; in assay [3], over 50000 nM; on Matrilysin it was over 50000 nM; at Stromelysin-1, 17000 nM; at Collagenase 3, 20000 nM. For the same compound, the inhibition constant Ki was over 50000 nM at Interstitial collagenase, 11000 nM in assay [4] and 33000 nM in [5].

Turning to `CN(Cc1ccco1)C(=O)[C@H](O)[C@@H](O)C(=O)NCCc1cccs1`, the Ki in assay [1] (read-out: Ki) was 1020 nM.

Regarding `O=C(NCc1nc(Cc2ccccc2)cs1)[C@H](O)[C@@H](O)C(=O)N1CCCC1c1ccccc1` (some centres undefined), the Ki in [1] (read-out: Ki) turned out to be 8 nM.

For `CN(CCc1ccccc1)C(=O)[C@H](O)[C@@H](O)C(=O)NCCc1cccs1`, the inhibitory constant (Ki) in assay [1] (read-out: Ki) is 1280 nM.

For `COc1cccc(N2CCN(C(=O)[C@H](O)[C@@H](O)C(=O)NCCc3cccs3)CC2)c1`, the Ki in assay [1] (read-out: Ki) was determined as 400 nM.

For the compound `O=C(NCCc1cccs1)[C@H](O)[C@@H](O)C(=O)N1CCCCC1c1ccccc1` (some centres undefined), the inhibitory constant (Ki) in assay [1] (read-out: Ki) amounted to 325 nM.

Take `Cc1cccc(C2CCCN2C(=O)[C@H](O)[C@@H](O)C(=O)N(C)CCc2cccs2)c1` (some centres undefined): in [1] (read-out: Ki), the Ki came out at 13 nM.

Turning to `O=C(NCCc1cccs1)[C@H](O)[C@@H](O)C(=O)N1CCC[C@@H]1c1ccccc1`, in assay [1] (read-out: Ki), the Ki turned out to be 20 nM.

For the compound `O=C(NCCc1cccs1)[C@H](O)[C@@H](O)C(=O)N1CCCC1c1nccs1` (some centres undefined), the Ki in [1] (read-out: Ki) is 164 nM.

As for `O=C([C@H](O)[C@@H](O)C(=S)NCc1cc(Cc2ccccc2Cl)cs1)N1CCCC1c1cccc(Cl)c1` (some centres undefined), the inhibition constant Ki in assay [1] (read-out: Ki) amounted to 1110 nM.

Take `CN(Cc1ccccc1)C(=O)[C@H](O)[C@@H](O)C(=O)NCCc1cccs1`: the inhibition constant Ki in assay [1] (read-out: Ki) worked out at 764 nM.

Take `O=C(NCCc1cccs1)[C@H](O)[C@@H](O)C(=O)NCc1ccccc1`: the Ki entry in [1] is reported as “Not Active”.

In the case of `O=C(NCc1cc(Cc2ccccc2)cs1)[C@H](O)[C@@H](O)C(=O)N1CCCC1c1ccc(F)cc1` (some centres undefined), the inhibitory constant (Ki) in assay [1] (read-out: Ki) came out at 93 nM.

With `O=C(NCCc1cccs1)[C@H](O)CC(=O)N1CCCC1c1cccc(Cl)c1` (some centres undefined), the Ki entry in assay [1] is reported as “Not Active”.

`O=C(NCCc1nc(Cc2ccccc2)cs1)[C@H](O)[C@@H](O)C(=O)N1CCCC1c1ccccc1` (some centres undefined): the Ki in assay [1] (read-out: Ki) was determined as 48 nM.

For the compound `O=C(NCCc1cc(Cc2ccccc2)cs1)[C@H](O)[C@@H](O)C(=O)N1CCCC1c1ccccc1` (some centres undefined), the inhibition constant (Ki) in assay [2] was over 25000 nM; in assay [1] (read-out: Ki), 66 nM; in assay [3], 700 nM; at Matrilysin, 6000 nM; on Collagenase 3, 3600 nM; at Interstitial collagenase it was over 50000 nM. Besides, the inhibition constant (Ki) in assay [4] is over 30000 nM; in [5], over 50000 nM.

On to `CN(CCc1cccs1)C(=O)[C@H](O)[C@@H](O)C(=O)N1CCN(c2ccccc2Cl)CC1`, for which the inhibition constant Ki entry in assay [1] is “Not Active”.

Consider `CN(C(=O)[C@H](O)[C@@H](O)C(=O)NCCc1cccs1)C1CCCCC1`, for which the Ki in [1] (read-out: Ki) came to 1400 nM.
